Patent publication US6403591B1, “1-azatricyclic-4-benzylpiperazines” (Neurogen Corporation, priority 1999, dated 2002)

Experiments:
primate D2 receptor = primate D2 receptor (UniProt P52702); assay: D2 receptor binding, 3H-YM 09151-2, CHO cell membranes; settings: recombinant primate D2 in CHO cells, 0.1 nM 3H-YM 09151-2, 25° C.
Method: (§1) The following assay is a standard assay for determining the binding affinity of compounds to dopamine D4 and D2 receptors.
(§2) Pellets of Chinese hamster ovary (CHO) cells containing recombinantly produced primate D2, human D4 and human α1 receptors are used for the assays. The sample is homogenized in 100 volumes (w/vol) of 0.05 M Tris HCl buffer containing 120 mM NaCl, 5 mM MgCl2 and 1 mM EDTA at 4° C. and pH 7.4. The sample is then centrifuged at 30,000×g, resuspended and rehomogenized. The sample is then recentrifuged at 30,000×g, the supernatant is removed and the final tissue sample is frozen until it is needed. The tissue is resuspended 1:20 (wt/vol) in 0.05 M Tris HCl buffer containing 120 mM NaCl.
(§3) Incubations for dopaminergic binding are carried out at 25° C. and contain 0.4 ml of tissue sample, 0.1 nM ^3H-YM 09151-2 (Nemonapride, cis-5-Chloro-2-methoxy-4-(methylamino)-N-(2-methyl-2-(phenylmethyl)-3-pyrrolidinyl)benzamide) and the compound of interest in a total incubation of 1.0 ml. Nonspecific binding is defined as that binding found in the presence of 1 μM spiperone; without further additions, nonspecific binding is less than 20% of total binding.

human α1 receptor = assay: α1 receptor binding, 3H-prazosine, CHO cell membranes; settings: recombinant human α1 in CHO cells
Method: as §2
Norepinephrine al binding is carried out using ^3H-prazosine as the ligand. Nonspecific binding is determined in the presence of 1 μM prazosine. Preferably, dopamine antagonists should not interact with the α1 adrenergic receptor, as interactions with this G-coupled protein receptor give rise to types of hypotension.

human D4 receptor = target: T1, human D4 receptor (Homo sapiens, UniProt P21917); assay: D4 receptor binding, 3H-YM 09151-2, CHO cell membranes; settings: recombinant human D4 in CHO cells, 0.1 nM 3H-YM 09151-2, 25° C.
T1 sequence (P21917 1-419): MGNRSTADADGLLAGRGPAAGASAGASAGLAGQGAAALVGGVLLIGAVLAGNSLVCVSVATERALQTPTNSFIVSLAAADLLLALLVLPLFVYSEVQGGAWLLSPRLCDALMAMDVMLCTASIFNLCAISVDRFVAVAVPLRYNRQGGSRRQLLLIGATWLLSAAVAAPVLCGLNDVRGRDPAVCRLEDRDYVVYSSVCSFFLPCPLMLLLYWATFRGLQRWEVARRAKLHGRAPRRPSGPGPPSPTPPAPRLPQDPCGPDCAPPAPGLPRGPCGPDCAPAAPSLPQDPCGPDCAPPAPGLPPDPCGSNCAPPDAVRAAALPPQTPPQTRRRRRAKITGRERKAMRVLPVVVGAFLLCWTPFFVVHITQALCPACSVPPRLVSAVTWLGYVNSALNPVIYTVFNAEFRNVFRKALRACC
Method: as §1, §2, §3

primate D2 receptor, sequence (P52702 whole entry): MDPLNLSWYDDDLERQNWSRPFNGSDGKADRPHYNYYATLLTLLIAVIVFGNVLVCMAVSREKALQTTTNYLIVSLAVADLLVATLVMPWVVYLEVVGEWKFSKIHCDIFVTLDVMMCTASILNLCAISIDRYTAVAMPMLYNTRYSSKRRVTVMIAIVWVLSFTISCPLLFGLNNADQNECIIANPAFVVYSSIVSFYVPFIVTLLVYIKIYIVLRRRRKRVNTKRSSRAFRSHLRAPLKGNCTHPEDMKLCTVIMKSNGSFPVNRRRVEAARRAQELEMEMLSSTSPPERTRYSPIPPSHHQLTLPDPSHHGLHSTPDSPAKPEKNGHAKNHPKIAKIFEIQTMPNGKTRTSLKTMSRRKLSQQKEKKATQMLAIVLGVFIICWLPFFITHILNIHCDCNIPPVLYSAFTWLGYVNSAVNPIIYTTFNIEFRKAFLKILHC

Row | Ki (human D4 receptor) [nM] | Structure (SMILES) | Ki (primate D2 receptor) [nM] | Ki (human α1 receptor) [nM]
1 | 4 | Cc1ccc(CN2CCN(C3CCc4cccc5c4N(CC5)C3=O)CC2)cc1 (centres unmarked) [Compound 1, 5-[(4-methylbenzyl)piperazin-1-yl]-1,2,4,5,6,7-hexahydro-4-oxo-pyrrolo-[3,2,1-jk][1]benzazepine] | – | –
2 | 19 | CC1(C)Cc2cccc3c2N1C(=O)C(N1CCN(Cc2ccc(Cl)cc2)CC1)CC3 (centres unmarked) [Compound 2, 5-[(4-chlorobenzyl)piperazin-1-yl]-2,2-dimethyl-1,2,4,5,6,7-hexahydro-4-oxo-pyrrolo-[3,2,1-jk][1]benzazepine] | – | –

Row | Structure (SMILES) | Ki (human D4 receptor) [nM] | Ki (primate D2 receptor) [nM] | Ki (human α1 receptor) [nM]
3 | CC1Cc2cccc3c2N1C(=O)C(N1CCN(Cc2ccc(Cl)cc2)CC1)CC3 (mixture of isomers) [Compound 4] | 9 | 50 | > 1000
